Measurements: PubChem BioAssay (NCI)
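Five compound concentrations were applied to cells in 96-well plates for 48 hours; endpoints were derived by simple linear interpolation of the resulting dose-response curve. The concentration for 50% growth inhibition is given as GI50. At the TGI there is no net growth.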

What was measured:
Assay in all cases: NCI-60 cell line screen, 48 h
[1] = tested on: RPMI-8226 leukemia
[2] = tested on: KM12 colon
[3] = tested on: UACC-62 melanoma
[4] = tested on: 786-0 renal
[5] = tested on: CAKI-1 renal
[6] = tested on: SW-620 colon
[7] = tested on: HCC-2998 colon
[8] = tested on: UACC-257 melanoma
[9] = tested on: SNB-75 CNS
[10] = tested on: SK-MEL-5 melanoma
[11] = tested on: TK-10 renal
[12] = tested on: HOP-92 NSCLC
[13] = tested on: OVCAR-4 ovarian
[14] = tested on: SF-539 CNS
[15] = tested on: SF-295 CNS
[16] = tested on: SNB-19 CNS
[17] = tested on: DLD-1 colon
[18] = tested on: SK-MEL-2 melanoma
[19] = tested on: HCT-116 colon
[20] = tested on: IGROV1 ovarian
[21] = tested on: MALME-3M melanoma
[22] = tested on: OVCAR-8 ovarian
[23] = tested on: HCT-15 colon
[24] = tested on: HOP-62 NSCLC
[25] = tested on: ACHN renal
[26] = tested on: EKVX NSCLC

SMILES: CC(=O)[CH-]C(=O)c1ccccc1.CC(=O)[CH-]C(=O)c1ccccc1.CC(C)CCCC(C)[C@H]1CCC2[C@@H]3CC=C4C[C@@H]([O-])CC[C@]4(C)C3CC[C@@]21C.CC[O-].[Ti+4] (stereo partly specified)
- GI50 [1]: 18.5 µM
- TGI [1]: 52.2 µM
- GI50 [2]: 39.6 µM
- TGI [2]: > 100 µM
- GI50 [3]: 82.3 µM
- TGI [3]: > 100 µM
- GI50 [4]: 35.2 µM
- TGI [4]: > 100 µM
- GI50 [5]: > 100 µM
- TGI [5]: > 100 µM
- GI50 [6]: 46.6 µM
- TGI [6]: > 100 µM
- GI50 [7]: 62.6 µM
- TGI [7]: > 100 µM
- GI50 [8]: 60.3 µM
- TGI [8]: > 100 µM
- GI50 [9]: 28.5 µM
- TGI [9]: > 100 µM
- GI50 [10]: 35.2 µM
- TGI [10]: > 100 µM
- GI50 [11]: 45.6 µM
- TGI [11]: > 100 µM
- GI50 [12]: 33.8 µM
- TGI [12]: 94 µM
- GI50 [13]: 91.6 µM
- TGI [13]: > 100 µM
- GI50 [14]: 34.1 µM
- TGI [14]: > 100 µM
- GI50 [15]: 40.9 µM
- TGI [15]: > 100 µM
- GI50 [16]: 32.6 µM
- TGI [16]: > 100 µM
- GI50 [17]: 93.7 µM
- TGI [17]: > 100 µM
- GI50 [18]: 22.4 µM
- TGI [18]: 80.1 µM
- GI50 [19]: 45.7 µM
- TGI [19]: > 100 µM
- GI50 [20]: > 100 µM
- TGI [20]: > 100 µM
- GI50 [21]: 29.4 µM
- TGI [21]: 75.6 µM
- GI50 [22]: 46.3 µM
- TGI [22]: > 100 µM
- GI50 [23]: 53.8 µM
- TGI [23]: > 100 µM
- GI50 [24]: 43.2 µM
- TGI [24]: > 100 µM
- GI50 [25]: 61 µM
- TGI [25]: > 100 µM
- GI50 [26]: 66.8 µM
